Results published in US20260256923A1, “NEW RECRUITMENT ELEMENT OF UBIQUITIN LIGASE AND USE THEREOF” (SHENZHEN LINGGENE BIOTECH CO., LTD., priority 2023, published 2026).

Key:
[1] = target: T1, interaction between NCL and MDM2 (Homo sapiens, UniProt P19338); assay: Co-immunoprecipitation of NCL and MDM2 from HeLa cell lysate, western blot; format: binding; details: 0-20 μM, 4° C. 6 h, IP with antibody against NCL
T1 construct: HeLa cervical cancer cells were lysed with an IP lysis solution; endogenous in cells; host or cells: HeLa cell lysate
T1 sequence (P19338 2-710 limits assumed): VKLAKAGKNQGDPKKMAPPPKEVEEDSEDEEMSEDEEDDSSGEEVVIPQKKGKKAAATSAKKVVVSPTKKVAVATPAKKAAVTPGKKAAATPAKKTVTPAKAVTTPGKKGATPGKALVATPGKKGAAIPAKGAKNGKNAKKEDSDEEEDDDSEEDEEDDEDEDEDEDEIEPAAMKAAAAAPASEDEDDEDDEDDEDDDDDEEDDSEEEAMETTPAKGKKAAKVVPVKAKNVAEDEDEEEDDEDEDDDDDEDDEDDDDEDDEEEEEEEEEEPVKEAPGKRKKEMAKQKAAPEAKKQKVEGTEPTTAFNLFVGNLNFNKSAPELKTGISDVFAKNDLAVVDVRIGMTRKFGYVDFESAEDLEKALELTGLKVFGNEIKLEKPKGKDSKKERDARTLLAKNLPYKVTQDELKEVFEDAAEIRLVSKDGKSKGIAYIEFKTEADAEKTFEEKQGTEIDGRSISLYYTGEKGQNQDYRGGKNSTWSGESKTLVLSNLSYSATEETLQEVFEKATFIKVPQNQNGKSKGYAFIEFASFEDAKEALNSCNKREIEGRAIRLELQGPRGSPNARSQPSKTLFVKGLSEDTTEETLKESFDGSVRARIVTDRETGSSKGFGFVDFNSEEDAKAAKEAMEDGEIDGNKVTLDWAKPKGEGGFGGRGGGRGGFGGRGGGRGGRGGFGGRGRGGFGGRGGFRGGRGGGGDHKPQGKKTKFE
Protocol: Co-immunoprecipitation (Co-IP) is a classical method for the study of protein interactions based on the specific interaction between an antibody and an antigen. It is an effective method to determine the physiological interaction between two proteins in intact cells.
HeLa cervical cancer cells were lysed with an IP lysis solution (purchased from Thermo Scientific, Cat. No.: 87788) and then incubated with AS 1411 or iSN04 at different concentrations (0 μM, 1 μM, 5 μM, 10 μM, and 20 μM) at 4° C. for 6 h. Subsequently, […] of an antibody against NCL was added, and the mixture was further incubated at 4° C. overnight. Protein A/G magnetic beads (purchased from Thermo Scientific, Cat. No.: 88802) were added, and the mixture was incubated with rotation at room temperature for 1.5 h. The bound NCL and its interacting proteins on the magnetic beads were washed with an IP lysis buffer (purchased from Thermo Scientific, Cat. No.: 87788), and an SDS-PAGE protein loading buffer (purchased from Beyotime, Cat. No.: P0015) was added. The mixture was heated to 100° C. and held for 10 min. The magnetic beads were adsorbed on a magnetic rack, and the supernatant was transferred into a new tube. Subsequently, western blot assay was performed to detect whether NCL bound to MDM2 and whether the binding was affected by AS 1411 or iSN04. […]

NCL [2] = target: T2, NCL (Homo sapiens, UniProt P19338); assay: Biotin-oligonucleotide pull-down from HeLa cell lysate, western blot (NCL); format: binding; design: HeLa cervical cancer cells were lysed with an IP lysis solution; endogenous in cells; host or cells: HeLa cell lysate; details: 5′-biotin label, 0 nM-20 μM
T2 sequence (P19338 whole entry): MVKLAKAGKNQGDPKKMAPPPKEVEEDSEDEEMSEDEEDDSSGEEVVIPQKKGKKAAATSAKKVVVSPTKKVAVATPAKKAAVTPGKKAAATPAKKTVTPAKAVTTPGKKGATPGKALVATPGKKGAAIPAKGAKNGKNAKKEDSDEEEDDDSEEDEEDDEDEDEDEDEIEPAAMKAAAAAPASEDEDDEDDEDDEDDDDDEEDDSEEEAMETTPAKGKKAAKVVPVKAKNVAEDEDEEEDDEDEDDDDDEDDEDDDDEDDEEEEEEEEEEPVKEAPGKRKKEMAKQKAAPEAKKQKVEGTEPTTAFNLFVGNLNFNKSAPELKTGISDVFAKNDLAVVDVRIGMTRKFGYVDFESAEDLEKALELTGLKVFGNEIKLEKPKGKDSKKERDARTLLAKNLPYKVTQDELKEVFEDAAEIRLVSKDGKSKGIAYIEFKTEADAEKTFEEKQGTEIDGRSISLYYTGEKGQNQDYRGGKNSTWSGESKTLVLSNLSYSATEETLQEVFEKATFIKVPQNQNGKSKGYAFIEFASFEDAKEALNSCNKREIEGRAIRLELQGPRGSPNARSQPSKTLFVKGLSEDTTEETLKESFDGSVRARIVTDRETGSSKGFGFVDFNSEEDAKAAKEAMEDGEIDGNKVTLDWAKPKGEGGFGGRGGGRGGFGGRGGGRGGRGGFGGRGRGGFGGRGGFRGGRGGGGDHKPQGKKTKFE
Protocol: (§1) HeLa cervical cancer cells were lysed with an IP lysis solution (purchased from Thermo Scientific, Cat. No.: 87788) and then incubated with a CRO (cytosine-rich oligonucleotide, negative control, SEQ ID NO: 13), AS1411, or iSN04 labeled by biotin at the 5′ end at different concentrations (0 nM, 200 nM, 500 nM, 1 μM, 5 μM, 10 μM, and 20 μM) at 4° C. for 6h. Subsequently, streptavidin agarose gel beads (purchased from cytiva, Cat. No.: 17511301) were added, and the mixture was further incubated at 4° C. overnight. After the bound biotin-labeled CRO, AS411, or iSN04 and its captured proteins on the gel beads were washed multiple times with an IP lysis buffer (purchased from Thermo Scientific, Cat. No.: 87788), an SDS-PAGE protein loading buffer (purchased from Beyotime, Cat. No.: P0015) was added, and the mixture was heated to 100° C. and held for 10 min. After centrifugation, the supernatant was collected as a pull-down product. The pull-down product was detected by western blot assay.

NCL [3] = target: T2, NCL; assay: Biotin-oligonucleotide pull-down with recombinant proteins (NCL); format: binding; design: purchased ACROBiosystems (NCL); R&D Systems (MDM2) NUL-H5253 (NCL); E3-202-050 (MDM2); details: 400 nM 5′-biotin label, 6 μg/mL NCL + 6 μg/mL MDM2
Protocol: (§2) 6 μg/mL recombinant human NCL and 6 μg/mL recombinant human MDM2 were mixed well and incubated at 4° C. for 7 h. Subsequently, 400 nM CRO, AS1411, or iSN04 labeled by biotin at the 5′ end was added, and the mixture was incubated at 4° C. for 6 h. Streptavidin agarose gel beads (purchased from cytiva, Cat. No.: 17511301) were added, and the mixture was further incubated at 4° C. overnight. The gel beads were washed 4 times with a TBST buffer, and an SDS-PAGE protein loading buffer (purchased from Beyotime, Cat. No.: P0015) was added. The mixture was heated to 100° C. and held for 10 min. After centrifugation, the supernatant was collected. The pull-down product was then detected by western blot assay.

MDM2 [4] = target: T3, MDM2 (Homo sapiens, UniProt Q00987); assay: Biotin-oligonucleotide pull-down from HeLa cell lysate, western blot (MDM2); format: binding; design: HeLa cervical cancer cells were lysed with an IP lysis solution; endogenous in cells; host or cells: HeLa; details: 5′-biotin label, 0 nM-20 μM
Protocol: as §1
Target sequence in this assay (P19338 2-710 partner limits assumed): as the sequence (P19338 2-710 limits assumed) above
Target sequence in this assay (Q00987 whole entry): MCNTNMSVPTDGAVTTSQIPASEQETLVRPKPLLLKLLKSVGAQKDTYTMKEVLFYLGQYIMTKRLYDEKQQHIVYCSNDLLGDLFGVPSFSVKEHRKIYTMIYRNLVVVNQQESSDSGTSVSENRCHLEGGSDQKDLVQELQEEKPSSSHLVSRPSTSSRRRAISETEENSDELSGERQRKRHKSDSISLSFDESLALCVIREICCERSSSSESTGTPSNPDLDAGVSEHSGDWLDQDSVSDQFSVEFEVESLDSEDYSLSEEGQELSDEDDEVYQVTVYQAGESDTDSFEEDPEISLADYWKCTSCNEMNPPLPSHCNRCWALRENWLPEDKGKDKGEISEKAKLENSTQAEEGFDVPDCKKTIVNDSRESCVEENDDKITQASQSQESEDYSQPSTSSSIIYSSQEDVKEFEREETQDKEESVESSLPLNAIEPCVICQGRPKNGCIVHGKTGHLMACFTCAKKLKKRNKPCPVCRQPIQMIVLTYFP

MDM2 [5] = target: T3, MDM2; assay: Biotin-oligonucleotide pull-down with recombinant proteins (MDM2); format: binding; design: purchased R&D Systems (MDM2); ACROBiosystems (NCL) E3-202-050 (MDM2); NUL-H5253 (NCL); details: 400 nM 5′-biotin label, 6 μg/mL NCL + 6 μg/mL MDM2
Protocol: as §2
Target sequence in this assay (P19338 whole entry partner): as the sequence (P19338 whole entry) above
Target sequence in this assay (Q00987 whole entry): as the sequence (Q00987 whole entry) above

[6] = G4 structural characteristics, N-methyl mesoporphyrin IX (NMM) fluorescent probe; format: physicochemical; details: 1 μM NMM
Protocol: Both AS1411 and iSN04 are oligonucleotides specifically binding to NCL. The sequence of AS1411 is SEQ ID NO: 1, and the sequence of iSN04 is SEQ ID NO: 14. AS1411 contains a plurality of GGT motifs, and iSN04 contains one GGT motif. Whether AS1411 and iSN04 have stable G4 structural characteristics was determined. The experimental process was as follows: 5 μM NC (negative control, SEQ ID NO: 15), AS1411, or iSN04 was added to water, and the total volume was 100 μL. The mixture was heated at 95° C. for 7 min and then immediately incubated on ice for 3 min, followed by the addition of 2 μL of N-methyl mesoporphyrin IX (NMM) (purchased from MCE, Cat. No.: HY-133821) to make a final concentration of 1 μM. The resulting mixture was incubated at room temperature for 1 h in the dark. The fluorescence intensity was detected by a microplate reader, with an emission wavelength of 550-700 nm and an excitation wavelength of […].
Guanine-rich DNA sequences can form more distinct G4 structural characteristics in the presence of metal ions (usually sodium and potassium ions). 5 μM NC (negative control, SEQ ID NO: 15), AS1411, or iSN04 was added to a 100 mM K^+ solution, and the total volume was 100 μL. The mixture was well mixed, heated at 95° C. for 7 min, and then immediately incubated on ice for 3 min, followed by the addition of 2 μL of N-methyl mesoporphyrin IX (NMM) (purchased from MCE, Cat. No.: HY-133821) to make a final concentration of 1 μM. The resulting mixture was incubated at room temperature for 1 h in the dark. The fluorescence intensity was detected by a microplate reader, with an emission wavelength of 550-700 nm and an excitation wavelength of […].

MDM2 [7] = target: T4, MDM2 (Homo sapiens, UniProt P19338+Q00987); assay: MDM2 protein degradation in A549 non-small cell lung cancer cells, western blot; format: cell-based; details: A549, 200 nM, 3 h
T4 construct: endogenous in cells; host or cells: A549
T4 sequence (Q00987 whole entry): as above
T4 sequence (P19338 2-710 limits assumed): as the sequence (P19338 2-710 limits assumed) above
Protocol: (1) A549 non-small cell lung cancer cells were incubated with 200 nM AS1411-VH032, and corresponding cell samples were collected at time gradients of 0 h, 3 h, 6 h, 9 h, 12 h, and 24 h for protein extraction and subsequent western blot assay to detect protein degradation.
(2) A549 non-small cell lung cancer cells were incubated with AS1411-VH032 at concentrations of 0 nM, 50 nM, 100 nM, 150 nM, 200 nM, and 250 nM. After 3 h, cell samples were collected for protein extraction and subsequent western blot assay to detect protein degradation.
(3) A549 non-small cell lung cancer cells were incubated with 200 nM AS1411, VH032, AS1411-VH032, or AS1411+VH032. After 3 h, cell samples were collected for protein extraction and subsequent western blot assay to detect protein degradation.
(4) A549 non-small cell lung cancer cells were incubated with 200 nM AS1411-VH032 for 3 h, and proteasome inhibitor MG132 was added. Cell samples were collected for protein extraction and subsequent western blot assay.
(5) A549 non-small cell lung cancer cells were transfected with si-NC or si-NCL and subsequently incubated with 200 nM AS1411-VH032 for 3 h. Cell samples were collected for protein extraction and subsequent western blot assay.
(1) A549 non-small cell lung cancer cells were incubated with 1000 nM AS1411-AS1411, and corresponding cell samples were collected at time gradients of 0 h, 3 h, 6 h, 9 h, 12 h, and 24 h for protein extraction and subsequent western blot assay to detect protein degradation.
(2) A549 non-small cell lung cancer cells were incubated with AS1411-AS1411 at concentrations of 0 nM, 50 nM, 100 nM, 250 nM, 500 nM, and 1000 nM. After 12 h, cell samples were collected for protein extraction and subsequent western blot assay to detect protein degradation.
(3) A549 non-small cell lung cancer cells were incubated with 1000 nM AS1411, AS1411-AS1411, or AS1411+AS1411. After 12 h, cell samples were collected for protein extraction and subsequent western blot assay to detect protein degradation. […]

[8] = system: MCF 10A human normal mammary epithelial cells; assay: Toxicity to normal cells, cell apoptosis proportion by flow cytometer; format: cell-based; details: 0-5000 nM, 4 days, medium renewed every day
Protocol: The toxicity of AS1411 to normal cells was compared with that of the small molecule ligand nutlin-3a of MDM2 to normal cells. AS1411 or nutlin-3a at different concentrations (0 nM, 500 nM, 1000 nM, and 5000 nM) was incubated with MCF 10A human normal mammary epithelial cells for 4 days, and the medium containing the respective concentrations of AS1411 or nutlin-3a was renewed every day. The cell apoptosis proportion was detected using a flow cytometer.

Compound: iSN04: oligonucleotide specifically binding to NCL, SEQ ID NO: 14: 5′-AGATTAGGGTGAGGGTGA-3′ (DNA, backbone not given here)
- effect on the interaction between NCL and MDM2 [1]: blocks the binding of NCL to MDM2
- capture of NCL (NCL [2]): can capture NCL only at a high concentration
- binding to NCL (NCL [3]): can only bind to NCL
- capture of MDM2 (MDM2 [4]): cannot capture MDM2
- binding / recruitment of MDM2 (MDM2 [5]): cannot recruit MDM2 depending on its interaction with NCL
- G4 structural characteristics (fluorescence signal intensity) ([6]; 5 μM in 100 mM K+ solution): 1000-2000
- G4 structural characteristics (fluorescence signal intensity) ([6]; 5 μM in water (no K+)): No G4 structural characteristics were detected

Compound: CC(=O)N[C@H](C(=O)N1C[C@H](O)C[C@H]1C(=O)NCc1ccc(-c2scnc2C)cc1)C(C)(C)C [VH032]
- protein level of MDM2 (MDM2 [7]): neither AS1411, VH032, nor AS1411+VH032 can reduce the protein level of MDM2

Compound: COc1ccc(C2=N[C@@H](c3ccc(Cl)cc3)[C@@H](c3ccc(Cl)cc3)N2C(=O)N2CCNC(=O)C2)c(OC(C)C)c1 [nutlin-3a]
- toxicity to normal cells (cell apoptosis proportion) [8]: can cause cell apoptosis

Compound: CRO: cytosine-rich oligonucleotide, negative control, SEQ ID NO: 13 (DNA CCTCCTCCTCCTTCTCCTCCTCCTCC; DNA, backbone and methylation of C not given here; further chemistry not fully specified)
- capture of NCL (NCL [2]): cannot capture either NCL or MDM2
- binding to NCL (NCL [3]): cannot bind to either NCL or MDM2
- capture of MDM2 (MDM2 [4]): cannot capture either NCL or MDM2
- binding / recruitment of MDM2 (MDM2 [5]): cannot bind to either NCL or MDM2
